Reference: publication PMC12692861, “Biotin-Linked Ursolic Acid Conjugates as Selective Anticancer Agents and Target-Identification Tools for Cancer Therapy” (Molecules, 2025)
Where two headings read alike, the source gives them in different places.

Columns and labels:
[1] = system: MB49; experiment: MTT antiproliferative assay; assay type: cell-based, murine; conditions: for SI (selectivity index), MB49: IC50 UROtsa / IC50 MB49; for IC50: Mus musculus, MB49, MTT, 72 h, read-out: IC50 ± SD, MB49
Protocol: The IC50 values indicate that 5c is effective across multiple bladder cancer cell lines (Figure 2 and Table 2).
(§1) The antiproliferative activities of various compounds examined in this report were measured using the MTT (3-[4,5-dimethylthiazol-2-yl]-2,5-diphenyl-tetrazolium bromide) reduction assay, as previously described. Briefly, cells were seeded at 2 × 10^3 cells per well in a 96-well plate and cultured overnight. The cells were then treated with different doses (5 µM, 10 µM, 15 µM, 20 µM, 25 µM, 30 µM, 35 µM, 40 µM in DMSO) for 72 h. Viability of the treated cultures was estimated by conversion of MTT to the insoluble formazan after 3h incubation at 37 °C and 5% CO2. The purple-colored formazan crystals were dissolved in DMSO, and absorbance was recorded at wavelengths 570/640 nm using the Bio-Rad Benchmark Plus Microplate Reader. The percent of viable cells was calculated ODtreated cells/ODcontrol cell wells × 100.

[2] = system: UROtsa; experiment: MTT assay, non-tumorigenic immortalized urothelial cell line; assay type: cell-based, human; conditions: for IC50: Homo sapiens, MTT, 72 h, non-tumorigenic cells, read-out: IC50 ± SD, UROtsa
Protocol: (§2) The synthesized hybrid conjugates 5a–d were evaluated for their antiproliferative activity against the established human bladder cancer cell lines T24 and 5637. Test compounds were dissolved in ultrapure dimethyl sulfoxide (DMSO), diluted in cell culture media, added to cells cultured in 96-well cluster wells, and incubated for 72 h. The concentration of DMSO in culture media was maintained at < 0.05%. As previously reported, the fraction of viable cells in the culture wells was compared to that in cultures with 0.05% DMSO-only using a colorimetric assay, the Methyl Tetrazolium Bromide (MTT) reduction assay. We determined the selectivity index (SI) of the compounds 5a–d against tumor cells by comparing their cytotoxicity to that of a non-tumorigenic breast epithelial cell line, MCF-12A, as well as a non-tumorigenic, immortalized urothelial cell line, UROtsa (Table 1, and Figure 2).
as §1

[3] = system: 5637 cells; experiment: Annexin V-FITC/PI apoptosis flow cytometry; assay type: cell-based; conditions: Homo sapiens, 24 h, read-out: Q3-3 (Q3, viable) cells
Protocol: The potential of cells treated with UA or 5c to undergo dose-dependent apoptosis was explored using quantitative flow cytometric analysis, as shown in Figure 4. Utilizing a kit that detects quantitative binding of Annexin V to externalized phosphatidyl serine during the apoptosis cascade and permeability of Propidium iodide (PI) in cells undergoing cell death, we determined the cells at various stages of cell death following 24h incubation with UA and 5c in various bladder cancer cells.
We used a fluorescence-based Annexin V binding assay to determine the fraction of the cell population undergoing early and late apoptosis due to the cytotoxicity of the drugs. Cells plated in a 60 mm dish overnight at 0.3 × 10^6 cells/well were incubated with the selected drug at several doses for 24 h. Subsequently, treated cells were labeled with FITC-Annexin V using a kit (eBioscience™ Annexin V Apoptosis Detection Kits; Invitrogen # 88-8005-72, Thermo Fisher Scientific, Seoul, Korea) as per the manufacturer’s instructions. Intact cell suspension labeled with FITC-Annexin V and PI was run on the NovoCyte Quanteon flow cytometer, and data were acquired in list mode. Acquired data were analyzed using NovoExpress software (version 1.6.1). Cells treated with Staurosporine (0.2 µM) act as a positive control.

[4] = system: MCF-12A; experiment: MTT assay, non-tumorigenic breast epithelial cell line; assay type: cell-based, human; conditions: for IC50: Homo sapiens, MCF-12A, MTT, 72 h, non-tumorigenic cells, read-out: IC50 (Mean ± SD), MCF-12A
Protocol: as §2, §1

[5] = system: T24 cells; experiment: MTT antiproliferative assay; assay type: cell-based, human; conditions: for IC50: Homo sapiens, T-24, MTT, 72 h, read-out: IC50 (Mean ± SD), T24; for SI (selectivity index), T24: IC50 MCF-12A / IC50 T24
Protocol: as §2, §1

[6] = system: T24 cells; experiment: ROS estimation with H2DCFDA; assay type: cell-based, human; conditions: T24, 24 h, all tested concentrations (5–40 µM)
Protocol: Since 5c was not toxic to non-tumorigenic cells, such as MCF12A and UROtsa, these cells were excluded from experiments aimed at identifying the broad mechanism of cytotoxicity. A common mechanism by which these antioxidants induce cytotoxicity in tumor cells is by generating Reactive Oxygen Species (ROS) selectively in fast-growing tumor cells. The levels of ROS generated by 5c exposed cells were evaluated with the oxidation of 2′,7′-dichlorodihydrofluorescein diacetate (H2DCFDA). It is a cell-permeant fluorescent probe used for detecting ROS production (Thermo Scientific Inc., Waltham, MA, USA). […] Figure 3 illustrates the quantification of intracellular ROS levels in four bladder cancer cell lines, 5637, T24, HT-1376, and MB49, following treatment with UA and its biotin-conjugated derivative, compound 5c.
The relative levels of intracellular ROS produced in untreated and drug-treated cells were analyzed by fluorimetry using the fluorescent probe H2DCFDA (Sigma-Aldrich, #D6883, St. Louis, MI, USA), as described previously. Briefly, cells cultured in a 96-well plate at 1 × 10^4 cells per well were treated with drugs of interest for 24 h rinsed with sterile PBS to remove excess drugs, and incubated with 10 μM DCFDA for 30 min at 37 °C and 5% CO2. Following three rinses with PBS, the fluorescence intensity was recorded at excitation: 485/20, emission: 528/20 using a BioTek Synergy HTX Multimode fluorescence plate reader (Agilent Technologies, Inc., Santa Clara, CA, USA), and the data were represented as percentage change compared to the respective untreated control.
Figure 3 Estimation of oxidative stress: Treatment with UA or 5c increased ROS levels in various bladder cancer cells. ROS levels were estimated at 24 h using DCFDA. The relative fluorescence unit (RFU) was normalized to that observed in untreated cells and expressed as a percent increase. Data are Means ± SD, (n = 4). Relative significance, expressed as p-value are calculated based on one-way ANOVA.

Row | IC50 [5] [µM] | SMILES | SI (selectivity index), MB49 [1] | IC50 [1] [µM] | IC50 [2] [µM] | toxicity to non-tumorigenic cells ([2]; UROtsa) | viability at 10 µM ([3]; 5637, 10 µM) [%] | viability at 15 µM ([3]; 5637, 15 µM) [%] | IC50 [4] [µM] | toxicity to non-tumorigenic cells ([4]; MCF12A) | SI (selectivity index), T24 [5] | IC50 in µM (selectivity index in parentheses), T-24 ([5]; IC50 UROtsa / IC50 T-24) | ROS levels [6] | viability at 10 µM [3] [%] | viability at 15 µM [3] [%]
1 | 14.2 ± 1.01 | CC1CCC2(C(=O)OCCCCOC(=O)CCCCC3SCC4NC(=O)NC43)CCC3(C)C(=CCC4C5(C)CCC(O)C(C)(C)C5CCC43C)C2C1C [Compound 5c, 4-((5-((3aS,4S,6aR)-2-Oxohexahydro-1H-thieno [3,4-d]imidazol-4-yl)pentanoyl)oxy) butyl 3-hydroxy-urs-12-en-28-oate] | 4.63 | 13.6 ± 0.18 | 62.9 ± 3.84 | not toxic | 33 | 27.9 | 83.11 ± 0.3 | not toxic | 5.85 | 14.20 ± 1.01 (4.43) | comparable increases in ROS levels | – | –
2 | 17.5 ± 0.98 | C[C@H]1[C@H](C)CC[C@]2(C(=O)O)CC[C@]3(C)C(=CC[C@@H]4[C@@]5(C)CC[C@H](O)C(C)(C)[C@@H]5CC[C@]43C)[C@H]12 [UA, Ursolic acid] | 6.26 | 10.7 ± 0.36 | 67 ± 7.15 | – | – | – | 56.4 ± 7.6 | – | 3.21 | – | comparable increases in ROS levels | 69.5 | 64.6
